The text below walks through data of US7632933B2, “Corticotropin releasing factor 2 receptor agonists” (priority 2002, dated 2009).

Read-outs that look alike come from different tables or passages of the source. Peptide text beside a SMILES is read from it.

For one assay, the target named is T1, CRF1R (Homo sapiens, UniProt P34998).
T1 sequence (P34998 24-415): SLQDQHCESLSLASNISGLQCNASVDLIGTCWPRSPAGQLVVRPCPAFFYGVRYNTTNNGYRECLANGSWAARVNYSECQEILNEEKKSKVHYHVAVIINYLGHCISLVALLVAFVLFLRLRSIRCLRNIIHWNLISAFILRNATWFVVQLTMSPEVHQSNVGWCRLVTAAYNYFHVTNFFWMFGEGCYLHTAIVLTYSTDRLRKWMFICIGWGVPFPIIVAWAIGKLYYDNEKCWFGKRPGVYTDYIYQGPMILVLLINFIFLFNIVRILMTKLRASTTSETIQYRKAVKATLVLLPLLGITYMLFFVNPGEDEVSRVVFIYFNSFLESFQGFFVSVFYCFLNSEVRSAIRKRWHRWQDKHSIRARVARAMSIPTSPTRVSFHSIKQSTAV
The assay can be described thus: CRF1R agonist activity (EC50 and Emax), called comparative CRF binding. It counts as cell-based. To be noted: CRF1R. From the text: (§1) The pharmacological activity and selectivity of the peptides of present invention can be determined using published test procedures. See, e.g, U.S. patent application Ser. No. 09/799,978. Because CRF2R and CRF1R are homologous proteins, it is expected that a certain proportion of agonists for CRF2R will also function as agonists of CRF1R. As discussed above, activation of CRF1R induces activation of the HPA axis since increased corticosteroid production leads to skeletal muscle atrophy. In most cases in which an increase in muscle mass or function is desired, it is not desirable to activate the HPA axis.
(§2) Because it is desirable to discriminate binding between CRF2R, as compared with CRF1R, the assays described above may be conducted using a cell, or membrane from a cell, which expresses only CRF2R or the assays can be conducted with a recombinant source of CRF2R. Cells expressing both forms of CRFR may be modified using homologous recombination to inactivate or otherwise disable the CRF1R gene. Alternatively, if the source of CRFR contains more than one CRFR type, the background signal produced by the receptor which is not of interest must be subtracted from the signal obtained in the assay. […] Known antagonists of CRFRs include, but are not limited to, antalarmin (CRF1R selective), antisauvagine-30 (CRF2R selective) and astressin (nonselective for CRF1R/CRF2R).
(§3) Cell-based assays include the steps of contacting cells which express CRF1R or CRF2R with a peptide of the present invention or control and measuring activation of the CRFR by measuring the expression or activity of components of the CRFR signal transduction pathways.
(§4) For example, after contact with a peptide of the present invention, lysates of the cells can be prepared and assayed for induction of cAMP. cAMP is induced in response to Gαs activation. Because Gαs is activated by receptors other than CRFR and because a test peptide may be exerting its effect through CRFRs or by another mechanism, two control comparisons are relevant for determining whether the peptide increases levels of cAMP via activation of a CRFR. One control compares the cAMP level of cells contacted with the peptide and the cAMP level of cells contacted with a control compound (i.e., the vehicle in which the peptide is dissolved).
(§5) In one example, cAMP induction is measured with the use of DNA constructs containing the cAMP responsive element linked to any of a variety of reporter genes can be introduced into cells expressing CRFRs. Such reporter genes include, but are not limited to, chloramphenicol acetyltransferase (CAT), luciferase, glucuronide synthetase, growth hormone, fluorescent proteins (e.g., Green Fluorescent Protein), or alkaline phosphatase. Following exposure of the cells to the peptide, the level of reporter gene expression can be quantitated to determine the peptide's ability to increase cAMP levels and thus determine the peptide's ability to activate the CRFR.
(§6) In addition to using cells expressing full length CRFRs, cells can be engineered which express CRFRs containing the ligand binding domain of the receptor coupled to, or physically modified to contain, reporter elements or to interact with signaling proteins. For example, a wild type CRFR or CRFR fragment can be fused to a G-protein resulting in activation of the fused G-protein upon agonist binding to the CRFR portion of the fusion protein. […] In addition, alternative pathways for induction of the CRE reporter could be eliminated to reduce basal levels.

Another assay concerns the target T2, CRF2R (Homo sapiens, UniProt Q13324).
T2 sequence (Q13324 1-411): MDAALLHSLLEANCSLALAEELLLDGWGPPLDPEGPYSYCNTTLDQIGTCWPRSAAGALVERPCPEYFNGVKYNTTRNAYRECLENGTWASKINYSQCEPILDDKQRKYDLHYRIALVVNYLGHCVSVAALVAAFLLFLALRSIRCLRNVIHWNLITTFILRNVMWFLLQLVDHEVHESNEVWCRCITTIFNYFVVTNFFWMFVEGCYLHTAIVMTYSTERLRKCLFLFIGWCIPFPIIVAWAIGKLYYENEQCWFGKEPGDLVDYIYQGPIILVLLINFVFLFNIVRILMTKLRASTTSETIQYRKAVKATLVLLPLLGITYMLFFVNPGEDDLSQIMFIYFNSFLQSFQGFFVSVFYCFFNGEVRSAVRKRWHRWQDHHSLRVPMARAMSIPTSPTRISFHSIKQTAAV
The assay can be described thus: CRF2R agonist activity (EC50 and Emax), called comparative CRF binding. It counts as cell-based. Conditions: CRF2R.
Description: as §1, §2, §3, §4, §5, §6

Consider `CC[C@H](C)[C@H](N)C(=O)N[C@H](C(=O)N[C@@H](CC(C)C)C(=O)N[C@@H](CO)C(=O)N[C@@H](CC(C)C)C(=O)N[C@@H](CC(=O)O)C(=O)N[C@H](C(=O)N1CCC[C@H]1C(=O)N[C@H](C(=O)NCC(=O)N[C@@H](CC(C)C)C(=O)N[C@@H](CC(C)C)C(=O)N[C@@H](CCC(N)=O)C(=O)N[C@H](C(=O)N[C@@H](CC(C)C)C(=O)N[C@@H](CC(C)C)C(=O)N[C@@H](CCC(=O)O)C(=O)N[C@@H](CCC(N)=O)C(=O)N[C@@H](C)C(=O)N[C@@H](CCCNC(=N)N)C(=O)N[C@@H](C)C(=O)N[C@@H](C)C(=O)N[C@@H](C)C(=O)N[C@@H](CCCNC(=N)N)C(=O)N[C@@H](CCC(=O)O)C(=O)N[C@@H](CCC(N)=O)C(=O)N[C@@H](C)C(=O)N[C@H](C(=O)N[C@H](C(=O)N[C@@H](CC(N)=O)C(=O)N[C@@H](C)C(=O)N[C@@H](CCCNC(=N)N)C(=O)N[C@H](C(=O)N[C@@H](CC(C)C)C(=O)N[C@@H](C)C(=O)N[C@@H](CCCNC(=N)N)C(=O)N[C@H](C(N)=O)C(C)C)[C@@H](C)CC)[C@@H](C)O)[C@@H](C)O)[C@@H](C)CC)[C@@H](C)CC)C(C)C)C(C)C` [compound 141] (H-IVLSLDVPIGLLQILLEQARAAAREQATTNARILARV-NH2), for which the EC50 on CRF1R (read-out: CRF1R EC50) and at CRF2R (read-out: CRF2R EC50) was above 100 nM in each case.
Consider `CC[C@H](C)[C@H](N)C(=O)N[C@H](C(=O)N[C@@H](CC(C)C)C(=O)N[C@@H](CO)C(=O)N[C@@H](CC(C)C)C(=O)N[C@@H](CC(=O)O)C(=O)N[C@H](C(=O)N1CCC[C@H]1C(=O)N[C@H](C(=O)NCC(=O)N[C@@H](CC(C)C)C(=O)N[C@@H](CC(C)C)C(=O)N[C@@H](CCC(N)=O)C(=O)N[C@H](C(=O)N[C@@H](CC(C)C)C(=O)N[C@@H](CC(C)C)C(=O)N[C@@H](CCC(=O)O)C(=O)N[C@H](C(=O)N[C@@H](CCC(=O)O)C(=O)N[C@@H](CCCCN)C(=O)N[C@@H](CCC(N)=O)C(=O)N[C@@H](CCC(=O)O)C(=O)N[C@@H](CCCCN)C(=O)N[C@@H](CCC(=O)O)C(=O)N[C@@H](CCCCN)C(=O)N[C@@H](CCC(N)=O)C(=O)N[C@@H](CCC(N)=O)C(=O)N[C@@H](C)C(=O)N[C@@H](C)C(=O)N[C@@H](CC(N)=O)C(=O)N[C@@H](CC(N)=O)C(=O)N[C@@H](CCCNC(=N)N)C(=O)N[C@@H](CC(C)C)C(=O)N[C@@H](CC(C)C)C(=O)N[C@@H](CC(C)C)C(=O)N[C@@H](CC(=O)O)C(=O)N[C@H](C(=O)N[C@H](C(N)=O)[C@@H](C)CC)[C@@H](C)O)[C@@H](C)CC)[C@@H](C)CC)[C@@H](C)CC)C(C)C)C(C)C` [compound 158] (H-IVLSLDVPIGLLQILLEIEKQEKEKQQAANNRLLLDTI-NH2), for which the EC50 (as a rule, the concentration at which the effect is half-maximal) was above 100 nM on CRF1R (CRF1R EC50 (nM)) and 6.37 nM on CRF2R (CRF2R EC50 (nM)).
As for `CC[C@H](C)[C@H](N)C(=O)N[C@H](C(=O)N[C@@H](CC(C)C)C(=O)N[C@@H](CO)C(=O)N[C@@H](CC(C)C)C(=O)N[C@@H](CC(=O)O)C(=O)N[C@H](C(=O)N1CCC[C@H]1C(=O)N[C@H](C(=O)NCC(=O)N[C@@H](CC(C)C)C(=O)N[C@@H](CC(C)C)C(=O)N[C@@H](CCC(N)=O)C(=O)N[C@@H](CCC(=O)O)C(=O)N[C@H](C(=O)N[C@@H](CC(C)C)C(=O)N[C@@H](CCC(=O)O)C(=O)N[C@@H](CCSC)C(=O)N[C@@H](C)C(=O)N[C@@H](CCCNC(=N)N)C(=O)N[C@@H](C)C(=O)N[C@@H](CCC(=O)O)C(=O)N[C@@H](CCC(N)=O)C(=O)N[C@@H](CC(C)C)C(=O)N[C@@H](C)C(=O)N[C@@H](CCC(N)=O)C(=O)N[C@@H](CCC(N)=O)C(=O)N[C@@H](C)C(=O)N[C@@H](Cc1c[nH]cn1)C(=O)N[C@@H](CO)C(=O)N[C@@H](CC(N)=O)C(=O)N[C@@H](CCCNC(=N)N)C(=O)N[C@@H](CCCCN)C(=O)N[C@@H](CC(C)C)C(=O)N[C@@H](CCSC)C(=O)N[C@@H](CCC(=O)O)C(=O)N[C@H](C(=O)N[C@H](C(N)=O)[C@@H](C)CC)[C@@H](C)CC)C(C)C)[C@@H](C)CC)C(C)C)C(C)C` [compound 165] (H-IVLSLDVPIGLLQEVLEMARAEQLAQQAHSNRKLMEII-NH2), the 50% effective concentration (EC50) on CRF1R (read-out: CRF1R EC50) and on CRF2R (read-out: CRF2R EC50) was above 100 nM throughout.
For `CC[C@H](C)[C@H](NC(=O)[C@H](C)NC(=O)[C@H](CC(N)=O)NC(=O)[C@H](CCC(N)=O)NC(=O)[C@H](CCC(=O)O)NC(=O)[C@H](C)NC(=O)[C@H](CCCNC(=N)N)NC(=O)[C@H](CCC(=O)O)NC(=O)[C@H](CCCNC(=N)N)NC(=O)[C@H](CCC(N)=O)NC(=O)[C@H](CO)NC(=O)[C@H](CCC(N)=O)NC(=O)[C@@H](NC(=O)[C@H](CCCNC(=N)N)NC(=O)[C@H](C)NC(=O)[C@H](CC(C)C)NC(=O)[C@H](CCC(=O)O)NC(=O)[C@H](CC(C)C)NC(=O)[C@H](CC(C)C)NC(=O)[C@@H](NC(=O)[C@H](CCCNC(=N)N)NC(=O)[C@H](CC(C)C)NC(=O)[C@H](CC(C)C)NC(=O)[C@H](Cc1ccc(O)cc1)NC(=O)[C@@H](NC(=O)[C@@H]1CCCN1C(=O)[C@H](CC(C)C)NC(=O)[C@H](CC(=O)O)NC(=O)[C@@H](NC(=O)[C@H](CO)NC(=O)[C@H](CC(C)C)NC(=O)[C@H](CO)NC(=O)[C@@H]1CCCN1C(=O)[C@H](CC(N)=O)NC(=O)[C@@H](N)CC(=O)O)[C@@H](C)CC)[C@@H](C)O)[C@@H](C)O)[C@@H](C)O)C(=O)N[C@H](C(=O)N[C@@H](Cc1ccccc1)C(=O)N[C@@H](C)C(=O)N[C@@H](CO)C(=O)N[C@H](C(N)=O)C(C)C)[C@@H](C)CC` [compound 173] (H-DNPSLSIDLPTYLLRTLLELARTQSQRERAEQNAIIFASV-NH2), the EC50 was at least 1000 nM on CRF1R (read-out: CRF1R EC50) and at least 100 nM on CRF2R (read-out: CRF2R EC50).
On to `CC[C@H](C)[C@H](NC(=O)[C@H](C)NC(=O)[C@H](CC(N)=O)NC(=O)[C@H](CCC(N)=O)NC(=O)[C@H](CCC(=O)O)NC(=O)[C@H](C)NC(=O)[C@H](CCCNC(=N)N)NC(=O)[C@H](CCC(=O)O)NC(=O)[C@H](CCCNC(=N)N)NC(=O)[C@H](CCC(N)=O)NC(=O)[C@H](CO)NC(=O)[C@H](CCC(N)=O)NC(=O)[C@@H](NC(=O)[C@H](CCCNC(=N)N)NC(=O)[C@H](C)NC(=O)[C@H](CC(C)C)NC(=O)[C@H](CCC(=O)O)NC(=O)[C@H](CC(C)C)NC(=O)[C@H](CC(C)C)NC(=O)[C@@H](NC(=O)[C@H](CCCNC(=N)N)NC(=O)[C@H](CC(C)C)NC(=O)[C@H](CC(C)C)NC(=O)[C@H](Cc1ccccc1)NC(=O)[C@H](Cc1ccccc1)NC(=O)[C@@H]1CCCN1C(=O)[C@H](CC(C)C)NC(=O)[C@H](CC(=O)O)NC(=O)[C@@H](NC(=O)[C@H](CO)NC(=O)[C@H](CC(C)C)NC(=O)[C@H](CO)NC(=O)[C@@H]1CCCN1C(=O)[C@H](CC(N)=O)NC(=O)[C@@H](N)CC(=O)O)[C@@H](C)CC)[C@@H](C)O)[C@@H](C)O)C(=O)N[C@H](C(=O)N[C@@H](Cc1ccccc1)C(=O)N[C@@H](C)C(=O)N[C@@H](CO)C(=O)N[C@H](C(N)=O)C(C)C)[C@@H](C)CC` [compound 184] (H-DNPSLSIDLPFFLLRTLLELARTQSQRERAEQNAIIFASV-NH2; N-terminus assumed), for which the figures for the 50% effective concentration (EC50) at CRF1R (read-out: CRF1R EC50) and at CRF2R (read-out: CRF2R EC50) were 486 nM and 3.72 nM, respectively.
